Source: patent publication US20230058178A1, “METHODS AND MATERIALS FOR TREATING NERVE INJURY AND/OR PROMOTING WOUND HEALING” (The Penn State Research Foundation, priority 2020, published 2023)

Key:
[1] = cited from earlier work
[2] = tested on: sciatic nerve crush injury; assay: Triceps surae muscle tension immediately after sciatic nerve crush injury; format: in vivo, rat
Experimental: (§1) Sciatic nerve innervates triceps surae muscle and thus sciatic nerve conduction can be measured in terms of triceps surae muscle contraction. As shown in this experimental setup (FIG. 2) sciatic nerve was electrically stimulated proximal to crush site, and triceps surae muscle tension was measured by force transducer (FT10; Grass Instruments).
(§2) Briefly, Sprague-Dawley (SD) rats were anaesthetized with 3-4% isoflurane, the trachea was cannulated, and the lungs were mechanically ventilated (Harvard Apparatus) with oxygen balanced vaporized 2% isoflurane. The sciatic nerve and triceps surae muscles were exposed by blunt dissection and the calcaneal tendon was severed and linked with braided fishing line to a force transducer. A shielded stimulating electrode was placed under sciatic nerve and injury was performed distal to a stimulating electrode. Sciatic nerve underwent a standardized crush injury with blunt forcep (Miltex #18-1107) and jig or laceration injury with fine scissors. Sciatic nerve crush injury was done 3 mm proximal to trifurcation. The triceps surae muscles were contracted for 10 seconds at 40 Hz, 0.1 ms pulse, and a voltage two times above the motor threshold.

nerve transection = assay: Triceps surae muscle tension after sciatic nerve transection (laceration) injury; format: in vivo, rat; conditions: 150 μg/kg i.p.
Experimental: as §1, §2

[3] = 150 μg/kg i.p., SD rat
Experimental: 4-AP stock was prepared in saline and i.p. dose of 150 μg/kg was administered in rats.
Circulating level of 4-AP in rat serum sample was evaluated using ABSciex 4000 Q Trap mass spectrometry coupled with a Waters Acquity UPLC separation (UPLC/MS/MS) system in the Mass Spectrometry Core Facility in College of Medicine of Penn State University.
4-AP-d4 was used as an internal standard. The multiple reaction monitoring mode (MRM) was used to analyze and quantify 4-AP and 4-AP-d4, with the transitions of m/z 95>78 for 4-AP and 99>82 for 4-AP-d4. 4-AP was quantified by using a standard curve which was constructed by plotting the ratio of the peak area of 4-AP to the peak area 4-AP-d4 versus 4-AP concentration (0.01 μM-20 μM). All peaks were integrated and quantified by ABSciex Multiquan 2.1 software.

[4] = tested on: sciatic nerve crush injury; conditions: systemic administration (Tseng et al. 2016); cited from earlier work
[5] = tested on: sciatic nerve crush injury; assay: Triceps surae muscle tension 3 days post sciatic nerve crush injury; format: in vivo, rat; conditions: 3 days post crush
Text: Sciatic nerve crush injury was done 3 mm proximal to trifurcation.
Anesthesia was maintained with 2% isoflurane.

[6] = tested on: Dorsal skin excision wounds; assay: Dorsal skin excision wound closure; format: in vivo, mouse
Experimental: Dorsal skin excision wounds (5-mm diameter) were made on 7-8-week-old wild-type C57BL/6 mice (FIG. 15). Mice were systemically administered saline (control) or 80 μg of 4-AP daily for 14 days. All mice were subjected to functional wound healing and tissue regeneration image-based assays at days 0, 3, 7, 10, and 14. The wound size of each mouse was measured and compared to zero day wound diameter from digital images. The percentage of wound closure was calculated by using the formula:
Wound closure (%)=(area of original wound−area of actual wound)/area of original wound×100.

Q: What does the source list for `Nc1ccncc1` [4-AP, 4-aminopyridine]?
A: human tolerable limit of serum 4-AP [1]: 100 ng/mL; muscle tension ([2]; 30 minutes after 4-AP 150 μg/kg i.p. or local thermogel, 2100 g before injury, none post crush): 900 g; Muscle response increase over a crush ([2]; systemic (150 μg/kg i.p.) or local treatment): 800%; AUC of muscle tension ([2]; systemic or local treatment): significantly increased; peak muscle tension ([2]; systemic or local treatment): significantly increased; restoration of nerve conduction upon treatment (nerve transection): does not occur; 4-AP concentration in serum [3]: tolerable 4-AP concentration in serum; motor functional recovery after sciatic nerve crush injury [4]: improve motor functional recovery after sciatic nerve crush injury; muscle tension ([5]; lower stimulation voltage, 30 minutes after 150 μg/kg i.p. or local thermogel): 250 g; AUC of muscle tension ([5]; systemic or local treatment): significantly increased; Muscle response increase over a crush ([5]; systemic or local treatment): 80%; peak muscle tension ([5]; systemic or local treatment): significantly increased; reduction in wound area as compared to control animals ([6]; by seven days, systemic delivery): at least 50%; diameter/width of the wound area ([6]; day 3, 5 mm wound at day 0, 80 μg daily systemic (saline 5 mm)): 4.0 mm; diameter/width of the wound area ([6]; day 7, 80 μg daily systemic (saline 2.7 mm)): 1.5 mm; diameter/width of the wound area ([6]; day 10, 80 μg daily systemic (saline 1.0)): 0.3 mm; wound area reduction as compared to control animals ([6]; in three days, systemic delivery): at least 10%; wound healing compared to saline treated mice ([6]; systemic administration): accelerates the wound healing process
